Measured values as given in the supplement of paper PMC8617591.

Columns and labels:
[1] = tested on: Mycobacterium tuberculosis Erdman (autoluminescent); assay: Einf, fitted maximum growth inhibition of three-drug combination (fraction); higher = stronger maximal inhibition
Method: (§1)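 DiaMOND equipotent three-drug combination dose responses (10 doses, 1.5- or 2-fold spacing, centred on IC90) against autoluminescent M. tuberculosis Erdman in 8 in vitro models. Read-out is OD600, or luminescence for the intracellular and dormancy models, normalised to untreated wells. Hill-fit Einf, AUC25 and GRinf are potency metrics; FIC50 and FIC90 are total Loewe fractional inhibitory concentrations as log2 (negative = synergy).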

[2] = tested on: Mycobacterium tuberculosis Erdman (autoluminescent); assay: AUC25, normalised area under dose response up to IC25 (three-drug combination) (fraction (0-1)); higher = more potent at low dose
Method: as §1

[3] = tested on: Mycobacterium tuberculosis Erdman (autoluminescent); assay: total FIC50 (Loewe) at 50% inhibition, three-drug combination (log2); higher = more antagonistic
Method: as §1

[4] = tested on: Mycobacterium tuberculosis Erdman (autoluminescent); assay: total FIC90 (Loewe) at 90% inhibition, three-drug combination (log2); higher = more antagonistic
Method: as §1

[5] = tested on: Mycobacterium tuberculosis Erdman (autoluminescent); assay: GRinf, maximum normalised growth rate inhibition (three-drug combination) (unitless (-1 to 1)); higher = less effect (negative = killing)
Method: as §1

CC(C)/N=c1\cc2n(-c3ccc(Cl)cc3)c3ccccc3nc-2cc1Nc1ccc(Cl)cc1 [clofazimine] + CC[C@@H](CO)NCCN[C@@H](CC)CO [ethambutol] + CO[C@H]1/C=C/O[C@@]2(C)Oc3c(C)c(O)c4c(O)c(c(/C=N/N5CCN(C6CCCC6)CC5)c(O)c4c3C2=O)NC(=O)/C(C)=C\C=C\[C@H](C)[C@H](O)[C@@H](C)[C@@H](O)[C@@H](C)[C@H](OC(C)=O)[C@@H]1C [rifapentine]
Details | AUC25, [2] | Einf, [1] | GRinf, [5] | total FIC50, [3] | total FIC90, [4]
in vitro model: acidic pH 5.7, time point: constant (~7 days, model-specific) | 0.0945 | 0.877 | -0.109 | 0.153 | –
in vitro model: acidic pH 5.7, time point: terminal (~4-5 doublings, model-specific) | 0.0736 | 0.978 | -0.14 | 0.358 | 0.125
in vitro model: intracellular J774, time point: constant = terminal | – | 0.973 | -0.172 | – | -1.79

Details | AUC25, [2] | Einf, [1] | GRinf, [5] | total FIC50, [3] | total FIC90, [4]
in vitro model: butyrate, time point: constant (~7 days, model-specific) | 0.083 | 0.942 | -0.0595 | 0.37 | –
in vitro model: butyrate, time point: terminal (~4-5 doublings, model-specific) | 0.0656 | 0.972 | -0.043 | 0.422 | -0.0851
in vitro model: cholesterol 0.05 mM, time point: constant (~7 days, model-specific) | 0.111 | 0.703 | -0.0332 | – | –
in vitro model: cholesterol 0.05 mM, time point: terminal (~4-5 doublings, model-specific) | 0.0974 | 0.871 | -0.122 | 1.66 | –
in vitro model: cholesterol-high 0.2 mM, time point: constant (~7 days, model-specific) | 0.0285 | 0.928 | -0.371 | 1.18 | –
in vitro model: cholesterol-high 0.2 mM, time point: terminal (~4-5 doublings, model-specific) | 0.0668 | 1 | -0.81 | 1.37 | 1.24
in vitro model: dormancy (butyrate + nitrate, low O2), time point: constant (~7 days, model-specific) | 0.105 | 0.823 | 0.414 | -0.127 | –
in vitro model: dormancy (butyrate + nitrate, low O2), time point: terminal (~4-5 doublings, model-specific) | 0.128 | 0.99 | -0.336 | 0.0752 | 0.891
in vitro model: standard 7H9 glycerol, time point: constant = terminal | 0.105 | 0.92 | 0.0206 | -0.0963 | –
in vitro model: valerate, time point: constant (~7 days, model-specific) | 0.126 | 0.889 | 0.017 | 1.07 | –
in vitro model: valerate, time point: terminal (~4-5 doublings, model-specific) | 0.0898 | 0.925 | 0.0199 | 0.462 | 0.841

CC(C)/N=c1\cc2n(-c3ccc(Cl)cc3)c3ccccc3nc-2cc1Nc1ccc(Cl)cc1 [clofazimine] + CC[C@@H](CO)NCCN[C@@H](CC)CO [ethambutol] + CO[C@H]1/C=C/O[C@@]2(C)Oc3c(C)c(O)c4c(O)c(c(/C=N/N5CCN(C)CC5)c(O)c4c3C2=O)NC(=O)/C(C)=C\C=C\[C@H](C)[C@H](O)[C@@H](C)[C@@H](O)[C@@H](C)[C@H](OC(C)=O)[C@@H]1C [rifampicin]
Details | AUC25, [2] | Einf, [1] | GRinf, [5] | total FIC50, [3] | total FIC90, [4]
in vitro model: acidic pH 5.7, time point: constant (~7 days, model-specific) | 0.0857 | 0.88 | -0.0788 | -0.0594 | –
in vitro model: acidic pH 5.7, time point: terminal (~4-5 doublings, model-specific) | 0.0645 | 0.973 | -0.112 | 0.213 | -0.308
in vitro model: intracellular J774, time point: constant = terminal | – | 0.969 | -0.295 | – | -2.37

Details | AUC25, [2] | Einf, [1] | GRinf, [5] | total FIC50, [3] | total FIC90, [4]
in vitro model: butyrate, time point: constant (~7 days, model-specific) | 0.0971 | 0.95 | -0.114 | 0.276 | –
in vitro model: butyrate, time point: terminal (~4-5 doublings, model-specific) | 0.1 | 0.982 | -0.114 | 0.306 | 0.441
in vitro model: cholesterol 0.05 mM, time point: constant (~7 days, model-specific) | 0.126 | 0.684 | -0.277 | – | –
in vitro model: cholesterol 0.05 mM, time point: terminal (~4-5 doublings, model-specific) | 0.0974 | 0.785 | 0.17 | 2.31 | –
in vitro model: cholesterol-high 0.2 mM, time point: constant (~7 days, model-specific) | 0.0508 | 0.93 | -0.277 | 0.891 | –
in vitro model: cholesterol-high 0.2 mM, time point: terminal (~4-5 doublings, model-specific) | 0.0801 | 1 | -0.923 | 1.24 | 1.32
in vitro model: dormancy (butyrate + nitrate, low O2), time point: constant (~7 days, model-specific) | 0.0958 | 0.828 | 0.515 | 0.137 | –
in vitro model: dormancy (butyrate + nitrate, low O2), time point: terminal (~4-5 doublings, model-specific) | 0.0873 | 0.991 | -0.158 | 0.0335 | -0.232
in vitro model: standard 7H9 glycerol, time point: constant = terminal | 0.0958 | 0.922 | 0.048 | -0.0461 | –
in vitro model: valerate, time point: constant (~7 days, model-specific) | 0.0993 | 0.858 | 0.045 | 0.749 | –
in vitro model: valerate, time point: terminal (~4-5 doublings, model-specific) | 0.0696 | 0.929 | 0.036 | 0.485 | -0.638

CC(C)/N=c1\cc2n(-c3ccc(Cl)cc3)c3ccccc3nc-2cc1Nc1ccc(Cl)cc1 [clofazimine] + CC[C@@H](CO)NCCN[C@@H](CC)CO [ethambutol] + COc1c(N2C[C@@H]3CCCN[C@@H]3C2)c(F)cc2c(=O)c(C(=O)O)cn(C3CC3)c12 [moxifloxacin]
Details | AUC25, [2] | Einf, [1] | GRinf, [5] | total FIC50, [3] | total FIC90, [4]
in vitro model: acidic pH 5.7, time point: constant (~7 days, model-specific) | 0.115 | 0.672 | -0.00432 | 1.25 | –
in vitro model: acidic pH 5.7, time point: terminal (~4-5 doublings, model-specific) | 0.0596 | 0.925 | -0.127 | 0.64 | -0.564
in vitro model: intracellular J774, time point: constant = terminal | – | 0.966 | -0.457 | – | -0.92

Details | AUC25, [2] | Einf, [1] | GRinf, [5] | total FIC50, [3] | total FIC90, [4]
in vitro model: butyrate, time point: constant (~7 days, model-specific) | 0.11 | 0.96 | -0.103 | 0.505 | –
in vitro model: butyrate, time point: terminal (~4-5 doublings, model-specific) | 0.0834 | 0.979 | -0.104 | 0.581 | 0.553
in vitro model: cholesterol 0.05 mM, time point: constant (~7 days, model-specific) | 0.123 | 0.651 | -0.615 | – | –
in vitro model: cholesterol 0.05 mM, time point: terminal (~4-5 doublings, model-specific) | 0.117 | 0.885 | -0.144 | 1.19 | –
in vitro model: cholesterol-high 0.2 mM, time point: constant (~7 days, model-specific) | 0.0933 | 0.95 | -0.699 | 0.429 | –
in vitro model: cholesterol-high 0.2 mM, time point: terminal (~4-5 doublings, model-specific) | 0.0951 | 1 | -0.973 | 0.534 | 0.957
in vitro model: dormancy (butyrate + nitrate, low O2), time point: constant (~7 days, model-specific) | 0.0862 | 0.817 | 0.451 | 0.137 | –
in vitro model: dormancy (butyrate + nitrate, low O2), time point: terminal (~4-5 doublings, model-specific) | 0.113 | 0.977 | -0.415 | 0.0118 | 0.798
in vitro model: standard 7H9 glycerol, time point: constant = terminal | 0.0915 | 0.971 | -0.184 | 0.258 | 0.732
in vitro model: valerate, time point: constant (~7 days, model-specific) | 0.132 | 0.864 | -0.0325 | 0.987 | –
in vitro model: valerate, time point: terminal (~4-5 doublings, model-specific) | 0.0712 | 0.903 | 0.0757 | 0.489 | -1.39
